These results are taken from patent publication US20070225364A1, “Use of bismuth subgallate and borneol in treating melanoma” (HEDONIST BIOCHEMICAL TECHNOLOGIES CO., LTD., priority 2006, published 2007).

Several values for one entry are separate records, joined by “and”; a condition that tells them apart may be missing. Equal entries are not always repeated.

Data set [1] deals with A375 human melanoma cells. The data set is described as follows: Cytotoxicity assay (MTT relative viability), A375 cells. The format is cell-based. The conditions noted are these: BSG and BO applied together, 72 hours, FIGS. 1A and 1B. The procedure: (§1) A375 human melanoma cells (obtained from Food Industry Research and Development Institute, Hsinchu, Taiwan, R.O.C. under accession number CCRC 60039) and normal human keratinocyte (HaCaT) cells (obtained from Dr. Lin P., Institute of Medical & Molecular Toxicology, Chung Shan Medical University, Taichung, Taiwan) were used for the test.
(§2) A375 and HaCaT cells were incubated in 96-well plates (Corning Incorporated COSTAR® 3599) at a density of 3×10^3 cells/well and 5×10^3 cells/well, respectively. After 24 hours, the cells were treated with various concentrations of bismuth subgallate (BSG) and borneol (BO) for 72 hours. The cytotoxicity effect of BSG and BO was estimated by the relative viability (%) of the cells, which was determined by measuring the reduction of tetrazolium salt MTT using a Microplate reader (Thermo Lab systems Multishkan Spectrum) at a test wavelength of 550 nm and a reference wavelength of 690 nm. The relative viability is calculated by the following equation: Relative Viability(%)=ODtestODcontrol×100 The results are represented by the means plus standard errors (Mean±SE) of five repetitions.

The subject of data set [2] is normal human keratinocyte (HaCaT) cells. The data set is described as follows: Cytotoxicity assay (MTT relative viability), HaCaT cells. The data set is classed as cell-based. The conditions noted are these: BSG and BO applied together, 72 hours, FIG. 2. Here is the method: as §1, §2

For the molecule `CC1(C)C2CCC1(C)C(O)C2` (stereo not drawn) [BO, borneol], the “lowest concentration at which reduction of relative viability of A375 cells is observed” value in data set [1] stood at 2.5 µg/mL.

With bismuth subgallate [BSG], in data set [2], the “concentrations at which cytotoxicity effect on HaCaT cells is observed (only at high concentrations)” value was 140 µg/mL and 280 µg/mL. In data set [1], the “lowest concentration at which reduction of relative viability of A375 cells is observed” value is 17.5 µg/mL.
